Where “and” joins values, the source holds several entries; their conditions need not be identical. Equal values may be shown once.
Assays:
CT-26 cells = experiment: Tumor cell proliferation inhibition in BALB/c mouse model of subcutaneously transplanted CT-26 cells, alone or combined with BioXcell-mPD-L1; assay type: in vivo; conditions: for Tumor volume: average ± SEM, small molecules 75 mg/kg PO twice a day, BioXcell-mPD-L1 10 mg/kg IP twice a week
Protocol: The following table lists the animal grouping and dosing regimen of embodiment 1, the positive reference compound LY2157299 and the BioXcell PD-L1 monoclonal antibody (BioXcell-mPD-L1), which are used alone or in combination in vivo.
Mouse colon cancer CT-26 cells were cultured in vitro in a single layer, and culture conditions is RPMI1640 medium (Medium No. 1640, Roswell Parker Memorial Institute) supplemented with 10% fetal bovine serum at 37° C., 5% CO2. Passage was routinely digested with trypsin-EDTA twice a week. When the cell saturation is 80%-90%, the cells are collected, counted, and inoculated.
0.1 mL (1×10^5) CT-26 cells were subcutaneously inoculated into the right back of each BALB/c mouse. The mice were administered in groups according to the body weight of the mice on the second day after cell inoculation.
The experimental indicator is to investigate whether tumor growth is inhibited, delayed or cured. Tumor diameters were measured with Vernier calipers twice a week. The tumor volume is calculated as: V=0.5a×b^2, and a and b represent the long and short diameters of the tumor, respectively.
The antitumor effect of the compound was evaluated by TGI (%) or tumor proliferation rate T/C (%). TGI (%) reflects the tumor growth inhibition rate. Calculation of TGI (%): TGI (%)=[(1-(mean tumor volume at the end of administration of a treatment group—mean tumor volume at the start of administration of the treatment group))/(mean tumor volume at the end of treatment of the solvent control group)—mean tumor volume at the start of treatment of the solvent control group)]×100%.
Tumor proliferation rate T/C (%): The formula is as follows: T/C %=T/C×100% (T: treatment group; C: negative control group).
Tumor weights were measured after the end of the experiment and the percentage of T/Cweight was calculated. Tweight and Cweight represent the tumor weights of the drug-administered group and the vehicle control group, respectively.
Statistical analysis, including mean and standard error (SEM) of tumor volume at each time point for each group (see Table 4 for specific data). […] T-test was used for comparison between the two groups, and one-way analysis of variance was used for comparison between three or more groups. If there was a significant difference in F values, the Gass-Howell method was used to test. If there is no significant difference in F values, the Dunnet (2-sided) method is used for analysis. All data analysis was performed with SPSS 17.0. A significant difference was considered at p<0.05.

[1] = system: mouse breast cancer 4T1 cells; experiment: Tumor cell metastasis inhibition in BALB/c mouse orthotopic transplantation model of mouse breast cancer 4T1 cells; assay type: in vivo; conditions: 75 mg/kg PO once a day × 32
Protocol: Fluorescently labeled mouse breast cancer 4T1-Luc cells were expanded in vitro. Before the cells were collected, the mice were anesthetized with intraperitoneal injection of sodium pentobarbital. After anesthetized mice were fixed, the abdominal skin was disinfected with 70% alcohol. 100 uL of phosphate buffer (containing 0.5×10^6 4T1-luc2 cells) was inoculated into the left side of the fourth pair of abdominal mammary fat pads in mice, and the incision was sutured to disinfect the skin. The animals are kept warm with a warm blanket, observed until they wake up and put back in their cages. 0.1 mg/kg buprenorphine for pain relief was subcutaneously injected 30 min before surgery and 6 hours after surgery.
On the third day after modeling, the animals were subjected to bioluminescence detection by infrared data imaging, randomly grouped according to the fluorescence values, and administered according to the following experimental protocol, see Table 5.
To observe the inhibitory effect of embodiment 1 on tumor growth and metastasis, the experimental endpoint was designed to be 30-35 days after administration, with reference to historical data of the model. At the end of the experiment, the in situ tumor and various organ tissues were dissected, the tumor was weighed, and the fluorescence intensity of each organ was detected by IVIS fluorescence. Growth inhibition of orthotopic tumors can be compared by the weight of the in situ tumor in the experimental endpoint, and the inhibition curve is generated from the tumor volume measurement data twice a week during the experiment. The inhibition of tumor metastasis was determined by the presence or absence of fluorescence detection of each organ and the analysis of relative fluorescence intensity.
At the end of the experiment, the tumor weight will be detected and the relative tumor growth rate T/C (%) will be calculated; the tumor volume is calculated as: V=0.5a×b^2, and a and b represent the long and short diameters of the tumor, respectively. At the same time, the lung, liver, spleen, kidney, intestine and left upper limb were stripped, and fluorescence was detected to determine whether there was metastasis and metastasis intensity and ratio.
The antitumor effect of the compound was evaluated by the tumor growth inhibition rate TGI (%) or the relative tumor growth rate T/C (%).
Calculation of TGI (%): TGI (%)=[(1−mean tumor volume at the end of administration of a treatment group−mean tumor volume at the start of administration of the treatment group))/(mean tumor volume at the end of treatment of the solvent control group−mean tumor volume at the start of administration of the solvent control group)]×100%.
Relative tumor growth rate T/C (%) calculation: T/C(%)=Tt(treatment group)/Ct(control group)×100%, Tt is the average tumor volume at a certain measurement, and Ct takes the same day data.
The experimental results were statistically analyzed using one-way ANOVA. If there is a significant difference in F values, multiple comparisons should be made after ANOVA analysis. All data in this experiment were analyzed using SPSS 17.0. A significant difference was considered at p<0.05.
At the end of the experiment, each organ tissue was peeled off, and fluorescence imaging and fluorescence intensity value recording were measured by IVIS for 40 sec exposure within 8 min. The fluorescence imaging results of the tested tissues of the 10 animals excised by the maximum and minimum values are shown in Table 6.
According to the experimental end point, the fluorescence intensity of each group of organs was normalized by the control group, and the relative fluorescence intensity ratio of each group of organs was obtained. The ratio reflects the level of metastatic intensity on the corresponding organs.

liver cancer = conditions: phase 2, patients with liver cancer; cited from earlier work
TGF-βRI = target: T1, TGF-βRI (Homo sapiens, UniProt P36897); experiment: Test of inhibitory activity of TGFβ-RI in vitro; assay type: biochemical; conditions: 10 μM ATP
T1 sequence (P36897 34-503): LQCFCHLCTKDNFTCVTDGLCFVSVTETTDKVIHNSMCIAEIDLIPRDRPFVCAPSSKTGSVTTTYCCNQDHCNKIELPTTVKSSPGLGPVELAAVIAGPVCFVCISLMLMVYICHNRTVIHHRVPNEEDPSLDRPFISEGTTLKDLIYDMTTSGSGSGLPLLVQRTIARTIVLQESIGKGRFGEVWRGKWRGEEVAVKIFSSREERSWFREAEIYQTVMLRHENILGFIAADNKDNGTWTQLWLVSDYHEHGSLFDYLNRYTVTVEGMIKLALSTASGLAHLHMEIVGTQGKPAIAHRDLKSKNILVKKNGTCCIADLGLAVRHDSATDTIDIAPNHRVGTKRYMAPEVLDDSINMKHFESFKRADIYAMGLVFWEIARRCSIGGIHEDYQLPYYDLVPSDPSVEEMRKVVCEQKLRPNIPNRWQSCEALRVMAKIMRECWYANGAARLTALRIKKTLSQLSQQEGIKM
Protocol: i) Test compound: the IC50 was determined by diluting into 10 gradient points with each gradient by three-fold dilution and with a starting concentration of 5 μM.
ii) The IC50 of reference compound LDN193189 was determined by diluting into 10 gradient points with each gradient by three-fold dilution and with a starting concentration of 20 μM.
iii) The reaction system contains 10 μM ATP.
iv) Calculate the IC50 value by curve fitting when the percentage of enzyme activity (compared to the solvent group) is below 65% at the highest concentration of the sample.

[2] = system: NIH/3T3 mouse embryonic cells; experiment: Test of proliferation inhibition on NIH/3T3 mouse embryonic cells (CellTiter-Glo, with TGF-β1); assay type: cell-based; conditions: NIH3T3, 0.2 ng/mL TGF-β1, 72 h
Protocol: Promega's Luminescent Cell Viability Assay (CellTiter-Glo® method, i.e. ATP fluorescence activity detection and analysis), the compound is added to the cell culture plate for incubation. A substrate buffer for detecting intracellular ATP content was added on the day of detection. Slightly shake and centrifuge at 1000 rpm for 1 min. Tested after standing for 10 min. The assay plate was analyzed using Envision multifunctional enzyme marker of PerkinElmer, Inc., and the analysis mode was fluorescence detection, and the data was expressed by the reading of chemiluminescence signal at 400-700 nm.
i) When the cell growth coverage is about 70%, the cell layer was washed with 10 mL of Duchenne phosphate buffer (D-PBS) which is calcium- and magnesium-free, then 2 mL of 0.25% trypsin-EDTA digest was added. The cell culture flask was placed in a CO2 carbon dioxide incubator at 37° C. and incubated for 3-5 min, then 8 mL of complete culture medium containing 2% FBS DMEM cells was added, and the cells were puffed evenly into single cell and counted by Vi-cell cytometer, and NIH/3T3 cell suspension was diluted to 0.375×10^5/mL cells.
ii) 50 μL of 2% DMEM-containing medium was added around the 384-well cell culture plate, then 40 μL of cell suspension was added to the remaining wells to 1500 cells per well. The distribution of the cells was observed under a microscope, and the cell plates were placed in a cell culture incubator with 5% CO2 at 37° C.
iii) Dilution of the compound refers to the preparation of the compound.
iv) A mixture of 2% fetal bovine serum containing 1 ng/mL TGF-β1 in DMEM medium was added manually to the compound intermediate plate, 20 μL per well.
v) The compound intermediate plate was shook slightly for 10 sec at 1000 rpm/min and centrifuge for 10 sec.
vi) 10 uL of the mixed liquid from steps 4 and 5 of each well was transferred to the inoculated cell plate to a final volume of 50 μL by using a Bravo liquid workstation, and the final concentration of TGF-β1 was diluted to 0.2 ng/mL, and centrifuged for 10 sec at 1000 rpm/min. The plates were placed in an incubator with 5% carbon dioxide at 37° C., 5% carbon dioxide for 72 h. The final concentration of the compound is: (unit: μM)
vii) The cell plate containing the compound was cultured in a cell incubator with 5% CO2 at 37° C. for 3 days.
viii) After that, 25 μL of ATP fluorescence activity detection solution was added to each well of the cell plate, then shook gently for about 1 min and centrifuged at 500 rpm/min for about 30 sec, and the reading was performed in an Envision instrument after standing at room temperature for 10 min in the dark.

[3] = animals with metastasis/animals in group
[4] = average organ fluorescence relative to control group

## Cc1cccc(-c2nn3c(c2-c2ccnc4ccc(C(N)=O)cc24)CCC3)n1 [LY2157299, Galunisertib, reference compound]
CT-26 cells; day 10 of administration
  Tumor volume: 98 ± 14 mm^3
CT-26 cells; day 13 of administration
  Tumor volume: 446 ± 104 mm^3
CT-26 cells; day 15 of administration
  Tumor volume: 840 ± 177 mm^3
CT-26 cells; day 17 of administration
  Tumor volume: 1256 ± 257 mm^3
CT-26 cells; day 20 of administration
  Tumor volume: 2186 mm^3 and 2186 ± 435 mm^3
CT-26 cells; twenty days after start of administration, 75 mg/kg PO and/or 10 mg/kg IP
  Tumor proliferation rate T/C: 85%
CT-26 cells; twenty days after start of administration, 75 mg/kg and/or 10 mg/kg
  Antitumor effect compared with the solvent control group: no significant antitumor effect
[1]; [3]
  Metastasis rate, intestine: 60%
  Metastasis rate, kidney: 30%
  Metastasis rate, liver: 80%
  Metastasis rate, lung: 100%
  Metastasis rate, spleen: 10%
  Metastasis rate, upper limb: 70%
[1]; [4]
  Metastasis level, intestine: 41%
  Metastasis level, kidney: 121%
  Metastasis level, liver: 31%
  Metastasis level, lung: 20%
  Metastasis level, spleen: 4%
  Metastasis level, upper limb: 54%
Liver cancer
  Patients with a decrease in serum alpha-fetoprotein (AFP) level of more than 20%: about 23%

## CNC(=O)/C=C/c1c(-c2c(-c3cccc(C)n3)nn3c2CCC3)ccc2ncnn12 [Embodiment 2]
TGF-βRI
  IC50: 50 to 500 nM
[2]
  IC50: 2000 to 5000 nM

## Cc1cccc(-c2nn3c(c2-c2ccc4ncnn4c2/C=C/C(=O)NCCO)CCC3)n1 [Embodiment 5]
TGF-βRI
  IC50: 50 to 500 nM
[2]
  IC50: > 5000 nM

## Cc1cccc(-c2nn(Cc3cccc(C#N)c3)cc2-c2ccc3ncnn3c2/C=C/C(N)=O)n1 [Embodiment 6]
TGF-βRI
  IC50: 50 to 500 nM
[2]
  IC50: 500 to 2000 nM

## Cc1cccc(-c2nn(Cc3cccc(C(F)F)c3)cc2-c2ccc3ncnn3c2/C=C/C(N)=O)n1 [Embodiment 9]
TGF-βRI
  IC50: 50 to 500 nM
[2]
  IC50: 500 to 2000 nM

## CCNC(=O)/C=C/c1c(-c2c(-c3cccc(C)n3)nn3c2CCC3)ccc2ncnn12 [Embodiment 3]
TGF-βRI
  IC50: 50 to 500 nM
[2]
  IC50: 2000 to 5000 nM

## CCc1cccc(-c2nn3c(c2-c2ccc4ncnn4c2/C=C/C(N)=O)CCC3)n1 [Embodiment 10]
TGF-βRI
  IC50: 50 to 500 nM
[2]
  IC50: 2000 to 5000 nM

## Cc1nc(-c2nn3c(c2-c2ccc4ncnn4c2/C=C/C(N)=O)CCC3)ccc1Cl [Embodiment 12]
TGF-βRI
  IC50: > 500 nM

## Cc1cccc(-c2nn(C(C)C)cc2-c2ccc3ncnn3c2/C=C/C(N)=O)n1 [Embodiment 8]
TGF-βRI
  IC50: 50 to 500 nM
[2]
  IC50: 2000 to 5000 nM

## Cc1cccc(-c2nn(C3CCCC3)cc2-c2ccc3ncnn3c2/C=C/C(N)=O)n1 [Embodiment 7]
TGF-βRI
  IC50: 50 to 500 nM

## Cc1cccc(-c2nn3c(c2-c2ccc4ncnn4c2/C=C/C(=O)NC2CC2)CCC3)n1 [Embodiment 4]
TGF-βRI
  IC50: 50 to 500 nM
[2]
  IC50: 2000 to 5000 nM

## Cc1cc(C)nc(-c2nn3c(c2-c2ccc4ncnn4c2/C=C/C(N)=O)CCC3)c1 [Embodiment 11]
TGF-βRI
  IC50: > 500 nM

— US10548883B2, “Benzotriazole-derived α and β-unsaturated amide compound used as TGF-β RI inhibitor” (GENFLEET THERAPEUTICS (SHANGHAI) INC., priority 2016, dated 2020)
